Measurements from patent US20210161130A1, “COMPOSITIONS FOR ATTRACTING PESTS AND USES THEREOF” (DOMOBIOS, priority 2018, published 2021).

Tests used:
Assay type in all cases: in vivo
Tyrophagus putrescentiae [1] = assay: Two-choice bioassay (filter paper rectangles), attraction of mites
Method: (§1) A composition comprising menthone was prepared by diluting liquid menthone with a density of 0.894 (mixture of stereoisomers L-menthone and D-isomenthone, with 98% purity, from Alfa Aesar, Haverhill, USA) in water to obtain a concentration of 0.1 μl/mL (i.e., 10^−4 L/L), corresponding to a concentration of about 0.0894 mg/mL or a concentration of about 0.00894% (w/v). Said composition has a molar concentration of menthone of about 0.58 mM.
(§2) Compositions comprising menthone at different concentrations were prepared by serial dilutions in water of the composition comprising menthone at 10^−4 L/L (from 10^−4 L/L to 10^−8 L/L, i.e., from about 0.0894 mg/mL to about 8.94 ng/mL) and their capacity to attract acarids was tested.
(§3) A composition comprising peppermint oil (also known as essential oil of Mentha piperita), which itself comprises menthone, was prepared by diluting peppermint oil with a density of 0.898 g/mL (natural peppermint oil from Mentha piperita L., Sigma, St Louis, USA) in water to obtain a concentration of 0.1 μl/mL (i.e., 10^−4 L/L), corresponding to a concentration of about 0.0898 mg/mL or a concentration of about 0.00898% (w/v). Compositions comprising peppermint oil at different concentrations were prepared by serial dilutions in water of the composition comprising peppermint oil at 10^−4 L/L (from 10^−4 L/L to 10^−6 L/L, i.e., from about 0.0898 mg/mL to about 0.898 μg/mL) and their capacity to attract acarids was tested.
The experimental protocol was inspired by the quantitative choice bioassay run by Synder et al., in 1993. Said bioassay consisted of two rectangles of filter paper of equal dimensions, positioned so as to be parallel to each other and less than 2 cm apart in a petri dish with a 6 cm diameter. 10 μL microliters of the composition comprising menthone, either alone (i.e., isolated) or within peppermint oil, were loaded on one rectangle and 10 μL of solvent (i.e., water) were loaded on the other as a control. After the solvent evaporated, a small strip of filter paper was used to bridge the rectangles. A group of 30-40 mites was then transferred to the middle of the bridge and their movements were observed. The rectangle for which they exited the bridge was recorded. Each assay comprised two sets of rectangles of filter paper connected with a bridge, with the composition comprising menthone, either alone (i.e., isolated) or within peppermint oil, loaded on opposing rectangles in each set (e.g., rectangle on the left in the first set, and rectangle on the right in the second set). Data were submitted to Fisher analysis.
(§4) Statistical significance was assessed using a Fisher's exact test.

Dermatophagoides farinae [2] = assay: Two-choice bioassay (vegetable fiber support discs), attraction of mites
Method: as §1, §2, §3
(§5) Responses of Dermatophagoides spp. to compositions comprising menthone, either alone (i.e., isolated) or within peppermint oil, were tested in a two-choice bioassay as described in Otieno et al., 1985. Said bioassay comprised two support discs made of vegetable fiber (with a diameter of 1.7 cm), i.e., a test support and a control support, placed in a Petri dish (with a diameter of 6 cm) kept at 20-28° C. in the dark at 30% humidity. Compositions comprising menthone, either alone (i.e., isolated) or within peppermint oil, (50 μL or less) were applied via a syringe to the test support. The control support was loaded with water only. An appropriate number of mites were placed in the center of the dish, equidistant from the test support and the control support. The bioassay system was then left for 24 hr or less at 20-28° C. in the dark at 30% humidity before a count of the mites assembled on the test support and on the control support was made. Several replicates were run for each test.
as §4

[3] = tested on: Dermatophagoides pteronyssinus; assay: as above
Method: as §1, §2, §3, §5, §4

Dermatophagoides farinae [4] = assay: Simulated use test, infested cushion covered with sprayed sheet; details: menthone 10^−6 L/L, 6 sprays on sheet, 1 h, cushion infested with three mite species, N = 3
Method: (§6) A composition comprising menthone at a concentration of 10^−6 L/L was prepared by diluting 1 μL liquid menthone as described hereinabove (mixture of stereoisomers L-menthone and D-isomenthone, with 98% purity, from Alfa Aesar, Haverhill, USA) in 1 L of water. Hereafter, said composition is referred to as “compositions comprising menthone alone” or “compositions comprising menthone”.
(§7) A composition comprising peppermint oil at a concentration of 10^−5 L/L was prepared by diluting 10 μL peppermint oil (natural peppermint oil from Mentha piperita L., Sigma, St Louis, USA) as described hereinabove in 1 L of water. Hereafter, said composition is referred to as “composition comprising menthone within peppermint oil” or “composition comprising peppermint oil”.
(§8) In order to simulate real-life utilization of the composition for attracting pests of the invention, a common household furniture such as a cushion was infested with living mites and treated with a composition comprising menthone at a concentration of 10^−6 L/L (corresponding to a concentration of menthone of about 9×10^−4 mg/mL) or with a composition comprising peppermint oil at a concentration of 10^−5 L/L (corresponding to a concentration of peppermint oil of about 9×10^−3 mg/mL). As described in Japanese application JP2000336007 and in U.S. Pat. No. 6,415,545, the treatment consisted in laying a sheet on the infested household furniture and spraying the compositions to be tested over it. The number of attracted and unattracted mites was then counted to evaluate the efficacy of the tested composition. All the tests were run at 20-25° C. and 30-35% relative humidity, conditions normally found in households.
(§9) Brand new cushions (43×30×6 cm, Tom&Co) were infested with 400 Tyrophagus putrescentiae, 100 Dermatophagoides farinae and 100 Dermatophagoides pteronyssinus. The proportion of each species respected the average composition of natural mite populations that can be found in a pet basket: ⅔ of storage mites, ⅓ of house dust mites. Small pieces of dry dog food were spread over the cushions as a nourishment for mites. After the infestation, mites were allowed to settle down for 15 hours.
(§10) After 15 hours, a dark sheet was placed over the cushion to be treated. The size of the sheet was sufficient to cover the entire upper surface of the cushion (43×30 cm). The sheet was sprayed 6 times (total volume sprayed about 4 ml) with a composition comprising menthone, either alone (i.e., isolated) or within peppermint oil, or with water (control), keeping the bottle at a distance of about 30 cm from the sheet to be sprayed. A dry control was also used, corresponding to an untreated sheet, i.e., a sheet that was not sprayed. Sprays were evenly distributed in order to cover the totality of the sheet. The sheet was left in place for 1 h. 3 replicates were run with the composition comprising menthone, either alone (i.e., isolated) or within peppermint oil, and 3 replicates were run with the control.
(§11) In order to determine the number of mites within an infested place, the usual method is to vacuum the infested place (Wassenaar 1988). Each sheet was vacuumed for 2 minutes using a special filter (as described in the European patent application EP0630478) that retains the collected dust. The dust sample was then analyzed (see Step 4) in order to determine the number of mites attracted by the composition comprising menthone, either alone (i.e., isolated) or within peppermint oil. Similarly, after removal of the sheet, each cushion was vacuumed to determine the number of remaining mites (i.e., the number of mites that were not attracted by the composition comprising menthone, either alone (i.e., isolated) or within peppermint oil). The relative proportion of mites into the sheet and into the cushion determined the efficacy of the treatment (see Step 4). […]

[5] = tested on: Dermatophagoides pteronyssinus; assay: as above; details: menthone 10^−6 L/L, 6 sprays on sheet, 1 h, cushion infested with three mite species, N = 3
Method: as §6, §7, §8, §9, §10, §11

Total number of mites = assay: as above
Method: as §6, §7, §8, §9, §10, §11

Tyrophagus putrescentiae [6] = assay: as above; details: menthone 10^−6 L/L, 6 sprays on sheet, 1 h, cushion infested with three mite species, N = 3
Method: as §6, §7, §8, §9, §10, §11

[7] = composition comprising menthone 10^−4 L/L in water vs water
[8] = composition comprising menthone 10^−5 L/L in water vs water
[9] = composition comprising menthone 10^−6 L/L in water vs water
[10] = composition comprising menthone 10^−7 L/L in water vs water
[11] = composition comprising menthone 10^−8 L/L in water vs water

## CC1CCC(C(C)C)C(=O)C1 (stereo not shown) [menthone]
Tyrophagus putrescentiae [1]; [7]
  Mean efficiency: 50%
Tyrophagus putrescentiae [1]; [8]
  Mean efficiency: 47%
Tyrophagus putrescentiae [1]; [9]
  Mean efficiency: 57%
Tyrophagus putrescentiae [1]; [10]
  Mean efficiency: 53%
Tyrophagus putrescentiae [1]; [11]
  Mean efficiency: 49%
Dermatophagoides farinae [2]; [7]
  Mean efficiency: 41%
Dermatophagoides farinae [2]; [8]
  Mean efficiency: 40%
Dermatophagoides farinae [2]; [9]
  Mean efficiency: 62%
Dermatophagoides farinae [2]; [10]
  Mean efficiency: 49%
Dermatophagoides farinae [2]; [11]
  Mean efficiency: 51%
[3]; [7]
  Mean efficiency: 42%
[3]; [8]
  Mean efficiency: 50%
[3]; [9]
  Mean efficiency: 67%
[3]; [10]
  Mean efficiency: 42%
Dermatophagoides farinae [4]
  Efficacy (mites attracted out of the cushion): 47%
Dermatophagoides farinae [4]; listed as Menthone
  Efficacy (mites attracted out of the cushion): 47% (±6%)
[5]
  Efficacy (mites attracted out of the cushion): 44%
[5]; listed as Menthone
  Efficacy (mites attracted out of the cushion): 44%
Total number of mites; menthone 10^−6 L/L vs water control, Fisher's exact test, p-value=0.0006
  more mites attracted out of the infested cushion compared to the control: 21%
Total number of mites; menthone 10^−6 L/L, 6 sprays on sheet, 1 h, cushion infested with three mite species, N = 3
  Efficacy (mites attracted out of the cushion): 54% (±5%)
Tyrophagus putrescentiae [6]
  Efficacy (mites attracted out of the cushion): 69%
Tyrophagus putrescentiae [6]; listed as Menthone
  Efficacy (mites attracted out of the cushion): 69% (±8%)
